What was measured:
Glycine receptor = Glycine receptor (Rattus norvegicus, UniProt P22771+P24524+P07727+P20781); type: cell membranes, Wistar, Spinal cord, Membrane; note: in other assays of this panel Not Active means under 50% inhibition at 10 µM
[1] = target: 5-hydroxytryptamine receptor 4 (Cavia porcellus, UniProt O70528); type: cell membranes, Dunkin-Hartley, Striatum, Membrane; note: in other assays of this panel Not Active means under 50% inhibition at 10 µM
[2] = DRUGMATRIX: Phosphodiesterase PDE3 enzyme inhibition (substrate: [3H]cAMP + cAMP); type: tissue-based, Homo sapiens; details: platelet; Not Active = under 50% inhibition at 10 µM
[3] = target: Kappa-type opioid receptor (Homo sapiens, UniProt P41145); assay: DRUGMATRIX: Opiate kappa (OP2, KOP) radioligand binding (ligand: [3H] Diprenorphine); type: cell membranes, HEK293, Membrane; details: Not Active = under 50% inhibition at 10 µM
Sequence of Kappa-type opioid receptor (P41145 whole entry): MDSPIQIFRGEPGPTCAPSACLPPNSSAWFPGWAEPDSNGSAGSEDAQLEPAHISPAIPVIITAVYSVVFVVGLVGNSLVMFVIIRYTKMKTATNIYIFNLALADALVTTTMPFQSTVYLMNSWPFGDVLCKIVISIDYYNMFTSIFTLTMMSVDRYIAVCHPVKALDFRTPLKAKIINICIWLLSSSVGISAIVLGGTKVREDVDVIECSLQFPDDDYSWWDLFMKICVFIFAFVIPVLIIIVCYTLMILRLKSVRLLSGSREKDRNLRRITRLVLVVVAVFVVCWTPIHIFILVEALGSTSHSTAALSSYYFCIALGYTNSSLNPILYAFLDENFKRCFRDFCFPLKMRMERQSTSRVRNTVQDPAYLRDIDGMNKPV

[4] = target: C-C chemokine receptor type 5 (Homo sapiens, UniProt P51681); type: cell membranes, Membrane; details: hek293; note: in other assays of this panel Not Active means under 50% inhibition at 10 µM
Sequence of C-C chemokine receptor type 5 (P51681 whole entry): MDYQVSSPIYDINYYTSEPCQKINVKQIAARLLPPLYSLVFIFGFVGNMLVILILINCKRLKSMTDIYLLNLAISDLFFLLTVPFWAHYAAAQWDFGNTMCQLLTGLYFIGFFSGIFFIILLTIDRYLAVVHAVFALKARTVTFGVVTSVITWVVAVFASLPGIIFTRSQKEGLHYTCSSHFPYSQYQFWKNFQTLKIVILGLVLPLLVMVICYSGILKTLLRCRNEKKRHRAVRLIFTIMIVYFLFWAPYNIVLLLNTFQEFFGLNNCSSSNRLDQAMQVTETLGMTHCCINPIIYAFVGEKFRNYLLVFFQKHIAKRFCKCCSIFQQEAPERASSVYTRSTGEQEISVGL

[5] = target: Mitogen-activated protein kinase 14 (Homo sapiens, UniProt Q16539); set-up: species or system Escherichia coli;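 note: inhibition of p38alpha enzyme activity in a biochemical kinase assay, with myelin basic protein serving as substrate; in other assays of this panel Not Active means under 50% inhibition at 10 µM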
Sequence of Mitogen-activated protein kinase 14 (Q16539 whole entry): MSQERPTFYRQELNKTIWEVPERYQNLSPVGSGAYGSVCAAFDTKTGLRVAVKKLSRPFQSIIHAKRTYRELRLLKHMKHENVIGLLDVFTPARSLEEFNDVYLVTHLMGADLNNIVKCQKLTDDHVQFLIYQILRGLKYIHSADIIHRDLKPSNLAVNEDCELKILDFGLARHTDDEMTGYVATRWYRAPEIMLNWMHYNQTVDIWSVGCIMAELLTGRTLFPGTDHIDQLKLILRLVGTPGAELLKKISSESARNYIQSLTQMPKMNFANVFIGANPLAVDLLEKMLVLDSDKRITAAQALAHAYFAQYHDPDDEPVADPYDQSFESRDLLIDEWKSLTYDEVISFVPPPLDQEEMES

Substance-P receptor = Substance-P receptor (Homo sapiens, UniProt P25103); type: cell membranes, CHO, Membrane; note: in other assays of this panel Not Active means under 50% inhibition at 10 µM
Sequence of Substance-P receptor (P25103 whole entry): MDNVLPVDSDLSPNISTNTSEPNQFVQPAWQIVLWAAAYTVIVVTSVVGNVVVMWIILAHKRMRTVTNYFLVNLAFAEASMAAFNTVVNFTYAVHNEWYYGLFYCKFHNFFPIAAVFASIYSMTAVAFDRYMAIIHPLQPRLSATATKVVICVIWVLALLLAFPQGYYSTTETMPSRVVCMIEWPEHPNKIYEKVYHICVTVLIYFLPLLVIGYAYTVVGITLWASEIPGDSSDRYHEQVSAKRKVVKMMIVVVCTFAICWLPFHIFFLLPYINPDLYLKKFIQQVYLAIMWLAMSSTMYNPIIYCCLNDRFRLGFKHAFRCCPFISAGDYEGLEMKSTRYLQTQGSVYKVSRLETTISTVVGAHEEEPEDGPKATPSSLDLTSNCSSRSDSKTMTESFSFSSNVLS

Sequence of 5-hydroxytryptamine receptor 4 (O70528 whole entry): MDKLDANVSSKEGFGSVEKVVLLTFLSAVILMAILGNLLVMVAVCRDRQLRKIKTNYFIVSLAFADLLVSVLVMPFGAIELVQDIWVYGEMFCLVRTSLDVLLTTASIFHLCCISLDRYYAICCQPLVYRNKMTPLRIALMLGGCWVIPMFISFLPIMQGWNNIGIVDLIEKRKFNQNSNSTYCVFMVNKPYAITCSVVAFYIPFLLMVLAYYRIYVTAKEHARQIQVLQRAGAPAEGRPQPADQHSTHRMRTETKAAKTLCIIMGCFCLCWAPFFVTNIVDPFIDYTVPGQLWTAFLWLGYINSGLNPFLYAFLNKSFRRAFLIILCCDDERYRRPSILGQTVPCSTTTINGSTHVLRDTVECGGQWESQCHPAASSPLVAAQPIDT

| Compound | IC50 (Glycine receptor) | IC50 [1] | IC50 [2] | Ki [2] | IC50 ([3]; hek293) | IC50 [4] | IC50 ([5]; read-out: IC50) [µM] | IC50 (Substance-P receptor; cho) | IC50 [5] | Ki [3] [µM] | IC50 ([3]; read-out: IC50) [µM] | IC50 (Substance-P receptor; read-out: IC50) [µM] | Ki (Substance-P receptor; read-out: Ki) [µM] | Ki (Glycine receptor) | Ki [1] | Ki [4] | Ki [5] | Ki (Substance-P receptor; cho) |
| --- | --- | --- | --- | --- | --- | --- | --- | --- | --- | --- | --- | --- | --- | --- | --- | --- | --- | --- |
| Cc1c(C)c2c(c(C)c1O)CCC(C)(CN1CCN(c3cc(N4CCCC4)nc(N4CCCC4)n3)CC1)O2 (centres undefined) | Not Active | Not Active | Not Active | Not Active | Not Active | Not Active | 5.6 | Not Active |  |  |  |  |  |  |  |  |  |  |
| COc1ccc(CCN(C)CCCC(C#N)(c2ccc(OC)c(OC)c2)C(C)C)cc1OC (centres undefined) | Not Active | Not Active | Not Active | Not Active | Not Active | Not Active |  | Not Active | Not Active |  |  |  |  |  |  |  |  |  |
| CC(C)Cc1ccc([C@@H](C)C(=O)O)cc1 [(R)-IBUPROPHEN] | Not Active | Not Active | Not Active | Not Active | Not Active | Not Active |  | Not Active | Not Active |  |  |  |  |  |  |  |  |  |
| CN(C)CCOC(c1ccccc1)c1ccccc1 [DIPHENHYDRAMINE] | Not Active | Not Active |  |  | Not Active | Not Active |  | Not Active | Not Active |  |  |  |  |  |  |  |  |  |
| Clc1ccc(COC(Cn2ccnc2)c2ccc(Cl)cc2Cl)cc1 (centres undefined) [ECONAZOLE] | Not Active | Not Active |  |  |  | Not Active |  |  | Not Active | 3.45 | 8.62 | 11.9 | 6.48 |  |  |  |  |  |
| CCN(CC)CCOc1ccc(/C(=C(/Cl)c2ccccc2)c2ccccc2)cc1 [ENCLOMIPHENE] | Not Active | Not Active |  |  | Not Active | Not Active |  | Not Active | Not Active |  |  |  |  |  |  |  |  |  |
| Fc1ccc(C(c2ccc(F)cc2)N2CCN(C/C=C/c3ccccc3)CC2)cc1 [FLUNARIZINE] | Not Active | Not Active |  |  | Not Active | Not Active |  | Not Active | Not Active |  |  |  |  |  |  |  |  |  |
| CNCCC(Oc1ccc(C(F)(F)F)cc1)c1ccccc1 (centres undefined) [FLUOXETINE] | Not Active | Not Active |  |  | Not Active | Not Active |  | Not Active | Not Active |  |  |  |  |  |  |  |  |  |
| Cc1ccc(NC(=O)c2ccc(CN3CCN(C)CC3)cc2)cc1Nc1nccc(-c2cccnc2)n1 [IMATINIB] | Not Active | Not Active |  |  | Not Active | Not Active |  | Not Active |  |  |  |  |  |  |  |  |  |  |
| CC(C)Oc1ccc2c(=O)c(-c3ccccc3)coc2c1 [IPRIFLAVONE] | Not Active | Not Active | Not Active | Not Active | Not Active | Not Active |  | Not Active | Not Active |  |  |  |  |  |  |  |  |  |
| CC(C)NCC(O)c1ccc(O)c(O)c1 (centres undefined) [ISOPROTERENOL] | Not Active | Not Active | Not Active | Not Active | Not Active | Not Active |  | Not Active | Not Active |  |  |  |  |  |  |  |  |  |
| CNC1(c2ccccc2Cl)CCCCC1=O (centres undefined) [KETAMINE] | Not Active | Not Active | Not Active | Not Active | Not Active | Not Active |  | Not Active | Not Active |  |  |  |  |  |  |  |  |  |
| N#Cc1ccc(C(c2ccc(C#N)cc2)n2cncn2)cc1 [LETROZOLE] | Not Active | Not Active | Not Active | Not Active | Not Active | Not Active |  | Not Active | Not Active |  |  |  |  |  |  |  |  |  |
| CCN1CCC[C@H]1CNC(=O)c1cc(S(N)(=O)=O)ccc1OC [LEVOSULPIRIDE] | Not Active | Not Active | Not Active | Not Active | Not Active | Not Active |  | Not Active | Not Active |  |  |  |  |  |  |  |  |  |
| CCN(CC)CC(=O)Nc1c(C)cccc1C [LIDOCAINE] | Not Active | Not Active | Not Active | Not Active | Not Active | Not Active |  | Not Active | Not Active |  |  |  |  |  |  |  |  |  |
| O=C1Nc2ccc(Cl)cc2C(c2ccccc2Cl)=NC1O (centres undefined) [LORAZEPAM] | Not Active | Not Active | Not Active | Not Active | Not Active | Not Active |  | Not Active | Not Active |  |  |  |  |  |  |  |  |  |

| Compound | IC50 (Glycine receptor) | IC50 [1] | IC50 [2] | Ki [2] | IC50 ([3]; hek293) | IC50 [4] | IC50 ([5]; read-out: IC50) [µM] | IC50 (Substance-P receptor; cho) | IC50 [5] | Ki [3] [µM] | IC50 ([3]; read-out: IC50) [µM] | IC50 (Substance-P receptor; read-out: IC50) [µM] | Ki (Substance-P receptor; read-out: Ki) [µM] | Ki (Glycine receptor) | Ki [1] | Ki [4] | Ki [5] | Ki (Substance-P receptor; cho) |
| --- | --- | --- | --- | --- | --- | --- | --- | --- | --- | --- | --- | --- | --- | --- | --- | --- | --- | --- |
| CO[C@@H]1[C@@H](OC)[C@H](C)[C@@](O)(CC(=O)O)O[C@H]1[C@H](C)[C@H]1O[C@@]2(CC[C@@](C)([C@H]3CC[C@@](C)([C@@H]4O[C@@H]([C@H]5O[C@](C)(O)[C@H](C)C[C@@H]5C)C[C@@H]4O[C@@H]4C[C@H](OC)[C@@H](OC)[C@H](C)O4)O3)O2)C[C@H](O)[C@H]1C [MADURAMICIN ACID] | Not Active | Not Active | Not Active | Not Active | Not Active | Not Active |  | Not Active | Not Active |  |  |  |  |  |  |  |  |  |
| COc1c2occc2cc2ccc(=O)oc12 [METHOXSALEN] | Not Active | Not Active | Not Active | Not Active | Not Active | Not Active |  | Not Active | Not Active |  |  |  |  |  |  |  |  |  |
| C[C@H]1C[C@@H]2[C@H]([C@@H](O)C[C@@]3(C)[C@H]2CC[C@]3(O)C(=O)CO)[C@@]2(C)C=CC(=O)C=C12 [METHYLPREDNISOLONE] | Not Active | Not Active | Not Active | Not Active | Not Active | Not Active |  | Not Active | Not Active |  |  |  |  |  |  |  |  |  |
| Cc1cccc(C)c1OCC(C)N (centres undefined) [MEXILETINE] | Not Active | Not Active | Not Active | Not Active | Not Active | Not Active |  | Not Active | Not Active |  |  |  |  |  |  |  |  |  |
| Nc1cc(N2CCCCC2)nc(N)[n+]1[O-] [MINOXIDIL] | Not Active | Not Active | Not Active | Not Active | Not Active | Not Active |  | Not Active | Not Active |  |  |  |  |  |  |  |  |  |
| CO[C@H]1/C=C/O[C@@]2(C)Oc3c(C)c(O)c4c(O)c(c(/C=N/N5CCN(C6CCCC6)CC5)c(O)c4c3C2=O)NC(=O)/C(C)=C\C=C\[C@H](C)[C@H](O)[C@@H](C)[C@@H](O)[C@@H](C)[C@H](OC(C)=O)[C@@H]1C [RIFAPENTINE] | Not Active | Not Active | Not Active | Not Active | Not Active | Not Active |  | Not Active | Not Active |  |  |  |  |  |  |  |  |  |
| CCCCOc1cc(CC2CNC(=O)N2)ccc1OC (centres undefined) [RO-201724] | Not Active | Not Active | Not Active | Not Active | Not Active | Not Active |  | Not Active | Not Active |  |  |  |  |  |  |  |  |  |
| CC[C@@H](C(=O)[C@@H](C)[C@@H](O)[C@H](C)[C@@H]1O[C@@H]([C@@H](CC)C(=O)O)CC[C@@H]1C)[C@H]1O[C@]2(C=C[C@@H](O)[C@]3(CC[C@@](C)([C@H]4CC[C@](O)(CC)[C@H](C)O4)O3)O2)[C@H](C)C[C@@H]1C [SALINOMYCIN] | Not Active | Not Active | Not Active | Not Active |  | Not Active |  | Not Active | Not Active |  |  |  |  |  |  |  |  |  |
| O=C(Oc1ccccc1C(=O)O)c1ccccc1O [SALSALATE] | Not Active | Not Active | Not Active | Not Active | Not Active | Not Active |  | Not Active | Not Active |  |  |  |  |  |  |  |  |  |
| O=C(O)c1cn(-c2ccc(F)cc2)c2cc(N3CCNCC3)c(F)cc2c1=O [SARAFLOXACIN] | Not Active | Not Active | Not Active | Not Active | Not Active | Not Active |  | Not Active | Not Active |  |  |  |  |  |  |  |  |  |
| CN[C@H]1CC[C@@H](c2ccc(Cl)c(Cl)c2)c2ccccc21 [SERTRALINE] | Not Active | Not Active |  |  | Not Active | Not Active |  | Not Active | Not Active |  |  |  |  |  |  |  |  |  |
| CC(C)NCC(O)c1ccc(NS(C)(=O)=O)cc1 (centres undefined) [SOTALOL] | Not Active | Not Active | Not Active | Not Active | Not Active | Not Active |  | Not Active | Not Active |  |  |  |  |  |  |  |  |  |
| O.O.O.O.O.O.[Cl-].[Cl-].[Sr+2] [STRONTIUM CHLORIDE HEXAHYDRATE] | Not Active | Not Active | Not Active | Not Active | Not Active | Not Active |  | Not Active | Not Active |  |  |  |  |  |  |  |  |  |
| O=C(Nc1ccc(Br)cc1)c1cc(Br)cc(Br)c1O [TRIBROMSALAN] | Not Active | Not Active | Not Active | Not Active |  | Not Active | 0.715 | Not Active |  |  |  |  |  |  |  |  |  |  |
| MANGANESE CHLORIDE ANHYDROUS | Not Active | Not Active | Not Active | Not Active |  | Not Active |  | Not Active | Not Active |  |  |  |  | Not Active | Not Active | Not Active | Not Active | Not Active |
| SODIUM ORTHOVANAD | Not Active | Not Active | Not Active | Not Active |  | Not Active |  | Not Active | Not Active |  |  |  |  | Not Active | Not Active | Not Active | Not Active | Not Active |

Source: ChEMBL document CHEMBL1909046, “DrugMatrix in vitro pharmacology data”
